# Data published in patent US20090176841A1, “NOVEL 6-5 SYSTEM BICYCLIC HE[…] ITS PHAR[…]” (Sanwa Kagaku Kenkyusho Co., Ltd., priority 2006, published 2009).
# Assays:
# [1] = target: T1, recombinant human TRβ (Homo sapiens, UniProt P10828); experiment: biochemical; conditions: TR[…] (IC50, nM), displacement of 125I-T3 (0.16 nM)
# T1 sequence (P10828 244-461): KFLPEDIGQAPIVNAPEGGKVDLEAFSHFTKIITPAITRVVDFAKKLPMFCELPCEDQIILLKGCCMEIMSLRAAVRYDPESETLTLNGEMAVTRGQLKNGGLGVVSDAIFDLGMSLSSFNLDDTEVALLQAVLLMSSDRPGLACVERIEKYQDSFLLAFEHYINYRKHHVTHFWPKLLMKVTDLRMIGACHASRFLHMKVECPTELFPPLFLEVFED
# Source text: (§1) Thyroid Hormone Receptor Binding Test
# (§2) (1) Preparation of Fused Protein Having Ligand Binding Region of Thyroid Hormone Receptor
# (§3) Human TRα and human TRβ ligand binding domains were expressed in Escherichia coli as a fused protein (recombinant human TRα or recombinant human TRβ) having TRα and TRβ ligand binding domains at a C-terminus of His-Patch Thioredoxin using the His-Patch Thioredoxin fusing protein expressing system (Invitrogen).
# (§4) A nucleotide sequence of a region corresponding to the fused protein was confirmed by DNA sequence analysis.
# (§5) Escherichia coli by which the fused protein had been subjected to expression inducement were collected by a centrifugation method, and ground using ultrasound to prepare a ground cell liquid containing the fused protein. The ground cell liquid was centrifuged at 15000 rpm for about 30 minutes, and a solution containing the fused protein from the supernatant using a nickel chelating column was obtained. An NAP-10 column was replaced with a binding solution (20 mM, Tris-HCl, 0.15 M NaCl, 8% Glycerol, 0.1% BSA, 1 mM EDTA, 10 mM 2-melcaptethanol). The resulting binding solution containing the fused protein was frozen and stored at −70° C. or lower.
# (§6) (2) Binding Affinity for Thyroid Hormone Receptor
# (§7) This binding solution (60 μL) was added to all wells of a 96-well plate (MILLIPORE MultiScreen-HV, Cat. No. MANVN4550, Lot. No. F4SN86613). […] 80 μL of SephadexG25 was added to each well of MultiScreen-HV (MILLIPORE, Cat. No. MANVN4550, Lot. No. F4SN86613), the binding solution was added to sufficiently swell, and this was centrifuged at 600×g for 1 minute to prepare a column of SephadexG25. […] Again, 25 μL untreated binding solution was overlaid on the SephadexG25 column, and this was immediately centrifuged at 600×g for 1 minute. […] As an amount of recombinant human TRα or recombinant human TRβ used in the present test, an amount by which proper radioactivity is obtained in a range where an addition amount of the receptor and an amount of the complex in the above test system, was used.
# (§8) This was divided by the total complex amount to calculate a binding rate as the following equation:
# (§9) Binding rate=remaining complex amount/total complex amount
# [2] = target: T2, recombinant human TRα (Homo sapiens, UniProt P10827); experiment: biochemical; conditions: TR[…] (IC50, nM), displacement of 125I-T3 (0.16 nM)
# T2 sequence (P10827 190-410 isoform P10827-2): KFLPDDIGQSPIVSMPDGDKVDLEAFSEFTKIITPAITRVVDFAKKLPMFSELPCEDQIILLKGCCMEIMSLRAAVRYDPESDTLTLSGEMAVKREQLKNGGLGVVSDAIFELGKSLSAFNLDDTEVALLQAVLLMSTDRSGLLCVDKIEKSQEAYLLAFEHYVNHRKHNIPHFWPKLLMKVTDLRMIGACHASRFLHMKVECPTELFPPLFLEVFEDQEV
# Source text: as §1, §2, §3, §4, §5, §6, §7, §8, §9
SMILES,IC50 [1],IC50 [2]
Cc1ccc(NC(=O)CC(=O)O)c2cc(C)n(Cc3ccc(O)c(C(C)C)c3)c12 [Example 86],16 nM,670 nM
Cc1cc2c(NC(=O)C(=O)O)cccc2n1Cc1ccc(O)c(C(C)C)c1 [Example 72],40 nM,230 nM
CCC(C)c1cc(Cn2c(C)cc3c(NC(=O)C(=O)O)ccc(C)c32)ccc1O (centres unmarked) [Example 122],2.6 nM,24 nM
"CCOC(=O)C(=O)Nc1ccc(C)c2c1ccn2Cc1ccc(O)c(C(O)c2ccc(F)cc2)c1 (centres unmarked) [Example 56, Ethyl N-(1-{3-[(4-fluorophenyl)hydroxymethyl]-4-hydroxybenzyl}-7-methyl-1H-indol-4-yl)oxamate]",84 nM,480 nM
Cc1ccc(NC(=O)CCC(=O)O)c2cc(C)n(Cc3ccc(O)c(C(C)C)c3)c12 [Example 93],260 nM,650 nM
Cc1cc(NC(=O)C(=O)O)cc2ccn(Cc3ccc(O)c(C(C)C)c3)c12 [Example 108],54 nM,190 nM
CCc1cc2c(NC(=O)Cc3nnn[nH]3)cccc2n1Cc1ccc(O)c(C(C)C)c1 [Example 41],650 nM,> 10000 nM
"Cc1ccc(NC(=O)CC(=O)O)c2cc(C)n(Cc3ccc(O)c(C(O)c4ccc(F)cc4)c3)c12 (single isomer, unassigned; (-)) [Example 131, (−)-N-(1-{3-[(4-fluorophenyl)hydroxymethyl]-4-hydroxybenzyl}-2,7-dimethyl-1H-indol-4-yl)malonamic acid]",7.1 nM,99 nM
Cc1c(C)n(Cc2ccc(O)c(C(C)C)c2)c2cccc(NC(=O)C(=O)O)c12 [Example 83],27 nM,85 nM
CCOC(=O)CC(=O)Nc1ccc(C)c2c1cc(C(F)(F)F)n2Cc1ccc(O)c(C(C)C)c1 [Example 26],310 nM,3400 nM
CC(C)c1cc(Cc2c[nH]c3c(NC(=O)CC(=O)O)cccc23)ccc1O [Example 113],320 nM,> 10000 nM
CCOc1cc(Cn2c(C)cc3c(NC(=O)C(=O)O)ccc(C)c32)ccc1O [Example 126],320 nM,1900 nM
"Cc1ccc(NC(=O)CC(=O)O)c2cc(C)n(Cc3ccc(O)c(C(O)c4ccc(F)cc4)c3)c12 (centres unmarked) [Example 129, N-(1-{3-[(4-fluorophenyl)hydroxymethyl]-4-hydroxybenzyl}-2,7-dimethyl-1H-indol-4-yl)malonamic acid]",7.5 nM,260 nM
CC(C)c1cc(Cn2ccc3c(NC(=O)C(=O)O)cc(Br)cc32)ccc1O [Example 120],63 nM,380 nM
CC(C)c1cc(Cn2ncc3c(NC(=O)C(=O)O)cccc32)ccc1O [Example 111],1400 nM,> 10000 nM
Cc1ccc(NCCC(=O)O)c2ccn(Cc3ccc(O)c(C(C)C)c3)c12 [Example 82],1100 nM,1600 nM
CC(C)c1cc(Cn2ccc3c(NC(=O)CC(=O)O)cc(Br)cc32)ccc1O [Example 77],570 nM,> 10000 nM
Cc1ccc(NC(=O)Cc2nnn[nH]2)c2cc(C)n(Cc3ccc(O)c(C(C)C)c3)c12 [Example 43],8.5 nM,450 nM
"CCOC(=O)CC(=O)Nc1ccc(C)c2c1cc(C)n2Cc1ccc(O)c(C(O)c2ccc(F)cc2)c1 (centres unmarked) [Example 57, Ethyl N-(1-{3-[(4-fluorophenyl)hydroxymethyl]-4-hydroxybenzyl}-2,7-dimethyl-1H-indol-4-yl)malonamate]",24 nM,3800 nM
CCc1cc2c(NC(=O)C(=O)O)cccc2n1Cc1ccc(O)c(C(C)C)c1 [Example 118],91 nM,280 nM
Cc1ccc(NC(=O)CC(=O)O)c2cc(C)n(Cc3ccc(O)c4ccccc34)c12 [Example 115],130 nM,3600 nM
Cc1ccc(NC(=O)C(=O)O)c2cc(C)n(Cc3ccc(O)c(Cc4ccc(F)cc4)c3)c12 [Example 125],8.7 nM,66 nM

SMILES,IC50 [1],IC50 [2]
Cc1ccc(NC(=O)Cc2nnn[nH]2)c2ccn(Cc3ccc(O)c(C(C)C)c3)c12 [Example 42],150 nM,8200 nM
CCOC(=O)C(=O)Nc1ccc(C)c2c1ccn2Cc1ccc(O)c(C(C)C)c1 [Example 15],60 nM,490 nM
CC(C)c1cc(Cn2ccc3c(NC(=O)CC(=O)O)cccc32)ccc1O [Example 69],430 nM,> 10000 nM
CCC(C)c1cc(Cn2c(C)cc3c(NC(=O)CC(=O)O)ccc(C)c32)ccc1O (centres unmarked) [Example 123],9.4 nM,170 nM
CC(C)c1cc(Cn2ccc3cc(NC(=O)C(=O)O)ccc32)ccc1O [Example 105],260 nM,970 nM
Cc1cc2c(OCC(=O)O)cccc2n1Cc1ccc(O)c(C(C)C)c1 [Example 74],200 nM,2700 nM
CC(C)c1cc(Cn2c(C(F)(F)F)cc3c(NC(=O)CC(=O)O)cccc32)ccc1O [Example 76],67 nM,610 nM
Cc1cc2c(NC(=O)CC(=O)O)cccc2n1Cc1ccc(O)c(C(C)C)c1 [Example 73],210 nM,5100 nM
CCOC(=O)C(=O)Nc1ccc(C)c2c1cc(C)n2Cc1ccc(O)c(C(C)C)c1 [Example 21],6.3 nM,37 nM
CCCc1cc(Cn2c(C)cc3c(NC(=O)CC(=O)O)ccc(C)c32)ccc1O [Example 117],36 nM,640 nM
"CC(C)c1cc(Cn2ccc3c(NC(=O)C(=O)O)cccc32)ccc1O [Example 63, N-[1-(4-hydroxy-3-isopropylbenzyl)-1H-indol-4-yl]oxamic acid]",170 nM,1200 nM
Cc1ccc(NC(=O)C(F)C(=O)O)c2cc(C)n(Cc3ccc(O)c(C(C)C)c3)c12 (centres unmarked) [Example 88],13 nM,120 nM
"Cc1ccc(NC(=O)CC(=O)O)c2cc(C)n(Cc3ccc(O)c(C(O)c4ccc(F)cc4)c3)c12 (single isomer, unassigned; (+)) [Example 130, (+)-N-(1-{3-[(4-fluorophenyl)hydroxymethyl]-4-hydroxybenzyl}-2,7-dimethyl-1H-indol-4-yl)malonamic acid]",150 nM,5200 nM
CCOC(=O)C(=O)Nc1cccc2c1cc(C)n2Cc1ccc(O)c(C(C)C)c1 [Example 8],72 nM,370 nM
"CCOC(=O)C(=O)Nc1cccc2c1ccn2Cc1ccc(O)c(C(C)C)c1 [Example 1, Ethyl N-[1-(4-hydroxy-3-isopropylbenzyl)-1H-indol-4-yl]oxamate]",220 nM,1500 nM
CCc1cc2c(NC(=O)CC(=O)O)cccc2n1Cc1ccc(O)c(C(C)C)c1 [Example 75],550 nM,> 10000 nM
Cc1ccc(NC(=O)C(=O)O)c2cc(C)n(Cc3ccc(O)c(CCc4ccccc4)c3)c12 [Example 101],390 nM,2200 nM
CCCc1cc(Cn2c(C)cc3c(NC(=O)C(=O)O)ccc(C)c32)ccc1O [Example 116],9.2 nM,52 nM
CC(C)c1cc(Cn2ccc3c(NC(=O)CC(=O)O)ccc(Cl)c32)ccc1O [Example 78],36 nM,230 nM
Cc1cc(Cn2ccc3c(NC(=O)C(=O)O)ccc(C)c32)cc(C)c1O [Example 103],860 nM,3200 nM
Cc1ccc(NC(=O)CC(=O)O)c2cc(C)n(Cc3ccc(O)c(Cc4ccc(F)cc4)c3)c12 [Example 100],28 nM,600 nM
